# Several values for one entry are separate records, joined by “and”; a condition that tells them apart may be missing. Identical values can stand only once. Like-named read-outs stand apart in the source and are kept apart here. Marks after values point to notes of the source that are not given here.
# Columns and labels:
# [1] = Single-dose pharmacokinetics in beagle dogs; type: in vivo, female beagle dogs; settings: for Cmax: Oral
# CYP2C9 = CYP2C9 (Homo sapiens (Human), UniProt P11712); assay: Cellular cytochrome P450 induction in cryopreserved human hepatocytes; settings: tested at 10 μM, diclofenac substrate
# Chain of CYP2C9 (P11712 whole entry, looked up): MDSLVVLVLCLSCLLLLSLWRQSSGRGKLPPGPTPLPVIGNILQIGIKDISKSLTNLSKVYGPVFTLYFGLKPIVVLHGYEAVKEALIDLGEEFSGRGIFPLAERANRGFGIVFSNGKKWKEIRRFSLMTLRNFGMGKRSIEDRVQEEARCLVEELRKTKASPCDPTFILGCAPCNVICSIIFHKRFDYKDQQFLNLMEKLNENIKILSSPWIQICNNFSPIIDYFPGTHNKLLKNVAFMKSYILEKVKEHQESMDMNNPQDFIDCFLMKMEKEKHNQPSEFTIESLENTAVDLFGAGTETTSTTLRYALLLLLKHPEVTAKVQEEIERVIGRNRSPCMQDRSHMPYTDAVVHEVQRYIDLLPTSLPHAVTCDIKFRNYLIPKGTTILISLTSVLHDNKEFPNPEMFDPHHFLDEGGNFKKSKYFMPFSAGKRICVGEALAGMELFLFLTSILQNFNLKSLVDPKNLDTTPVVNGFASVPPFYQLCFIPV
# [2] = test system: LTB4 in Human Whole Blood; assay: Human blood LTB4 inhibition assay; type: cell-based; settings: individual tests 1-8
# Procedure: A non-limiting example of such a human blood LTB4 inhibition assay is as follows: Blood was drawn from consenting human volunteers into heparinized tubes and 125 μL aliquots added to wells containing 2.5 μL 50% dimethylsulfoxide (vehicle) or 2.5 μL drug in 50% dimethylsulfoxide. Samples were incubated for 15 minutes at 37° C. 2 μL calcium ionophore A23817 (from a 50 mM dimethylsulfoxide stock diluted just prior to the assay in Hanks balanced salt solution (Invitrogen)) to 1.25 mM) was added, solutions mixed and incubated for 30 minutes at 37° C. Samples were centrifuged at 1,000 rpm (˜200×g) for 10 minutes at 4° C., plasma removed and a 1:100 dilution assayed for LTB4 concentration using ELISA (Assay Designs). Drug concentrations to achieve 50% inhibition (IC50's) of vehicle LTB4 were determined by nonlinear regression (Graphpad Prism) of % inhibition versus log drug concentration.
# CYP2D6 = CYP2D6 (Homo sapiens (Human), UniProt P10635); assay: Extracellular cytochrome P450 inhibition (microsomes); type: in vitro ADME; settings: concentrations up to and exceeding 40 μM
# Chain of CYP2D6 (P10635 whole entry): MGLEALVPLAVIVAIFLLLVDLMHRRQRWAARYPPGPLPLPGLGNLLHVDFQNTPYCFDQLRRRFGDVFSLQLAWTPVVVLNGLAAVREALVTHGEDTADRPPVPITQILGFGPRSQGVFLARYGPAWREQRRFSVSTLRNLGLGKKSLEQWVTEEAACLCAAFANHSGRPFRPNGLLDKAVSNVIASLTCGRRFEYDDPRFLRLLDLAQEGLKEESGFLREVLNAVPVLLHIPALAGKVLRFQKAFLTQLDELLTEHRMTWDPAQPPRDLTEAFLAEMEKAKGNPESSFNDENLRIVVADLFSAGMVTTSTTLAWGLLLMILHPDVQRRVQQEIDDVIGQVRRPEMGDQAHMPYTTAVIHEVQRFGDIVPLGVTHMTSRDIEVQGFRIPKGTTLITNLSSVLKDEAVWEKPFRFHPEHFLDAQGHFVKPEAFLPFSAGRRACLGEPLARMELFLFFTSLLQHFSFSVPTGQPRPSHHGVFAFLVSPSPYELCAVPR
# Procedure: Aliquots of this mixture (89 μL) were delivered to each well of a 96-well polypropylene plate which contained an aliquot of inhibitor (1 μL). Final solvent concentrations were 1% (v/v) or less. Incubations were commenced with the addition of 10 μL β-NADPH (10 mM stock) to a final volume of 100 μL. […] Samples were centrifuged, and supernatant was transferred for LC-MS analysis.
# [3] = test system: LTB4 in Washed Human Leukocytes; assay: Inhibition of LTB4 in washed human leukocytes; type: cell-based; settings: individual tests 1-4
# [4] = test system: whole blood ionophore-stimulated leukotriene LTB4; assay: Phase I study: ex vivo ionophore-stimulated LTB4; type: in vivo, human
# From the text: Study Design: Single center, double-blind, randomized, placebo-controlled, single ascending dose followed by multiple ascending dose study.
# Sample Size: (1) Single Dose Phase: eight (8) subjects (6 active, 2 placebo) per dose level; up to 5 dose levels are planned (a total of 40 subjects if all 5 dose levels are completed); and (2) Multiple Dose Phase: eight (8) subjects (6 active, 2 placebo) per dose level; up to 4 dose levels are planned (a total of 32 subjects if all 4 dose levels are completed).
# Formulations: Compound 2 was supplied as an oral powder for reconstitution. Placebo solution matched. […] The placebo differed only in the absence of the active.
# The following dosing cohorts were used:
# Routes of Administration: All doses were administered orally with approximately 100 mL of water rinse. Subjects were fasted for at least 8 hours prior to dosing and for 2 hours after dosing. For BID dosing in the Multiple Dose Phase, when applicable, subjects were fasted for at least 2 hours prior to the second daily dose.
# Plasma concentrations of Compound 1 were determined using a validated LC/MS method. Whole blood ionophore-stimulated leukotriene LTB4 and urinary LTE4 production were assayed by ELISA and mass spectrometry, respectively.
# Analysis of Samples: Concentrations of Compound 1 was determined in plasma samples collected from subjects. Similarly, concentrations of LTB4 in plasma and urinary LTE4 were determined in blood and urine samples collected.
# human FLAP = human FLAP (Homo sapiens (Human), UniProt P20292); assay: FLAP binding assay (membrane radioligand binding); settings: read-out: IC50, inhibition of FLAP radioligand binding; individual tests 1-8
# Chain of human FLAP (P20292 whole entry): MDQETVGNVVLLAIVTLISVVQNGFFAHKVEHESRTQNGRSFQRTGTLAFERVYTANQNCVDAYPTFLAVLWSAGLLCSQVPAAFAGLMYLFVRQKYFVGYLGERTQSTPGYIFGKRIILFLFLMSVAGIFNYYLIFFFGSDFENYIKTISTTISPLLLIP
# Procedure: 100 μL ice-cold washed buffer was added to the incubation mixture. Plates were then filtered and washed 3× with 200 μL ice cold Tris-Tween buffer, scintillation bottoms sealed, 100 μL scintillant added, shaken for 15 minutes then counted in a TopCount. Specific binding was determined as defined as total radioactive binding minus non-specific binding in the presence of 10 μM 3-[5-(pyrid-2-ylmethoxy)-3-tert-butylthio-1-benzyl-indol-2-yl]-2,2-dimethylpropionic acid. IC50 values were determined using Graphpad prism analysis of drug titration curves.
# [5] = Oral administration of liquid formulations to rats; parameters: species or system male Spargue-Dawley rats; settings: Sprague-Dawley, rat, in vivo, solutions of Table 19, male rats
# CYP2C19 = CYP2C19 (Homo sapiens (Human), UniProt P33261); assay: Extracellular cytochrome P450 inhibition (microsomes); type: in vitro ADME; settings: concentrations up to and exceeding 40 μM
# Chain of CYP2C19 (P33261 whole entry): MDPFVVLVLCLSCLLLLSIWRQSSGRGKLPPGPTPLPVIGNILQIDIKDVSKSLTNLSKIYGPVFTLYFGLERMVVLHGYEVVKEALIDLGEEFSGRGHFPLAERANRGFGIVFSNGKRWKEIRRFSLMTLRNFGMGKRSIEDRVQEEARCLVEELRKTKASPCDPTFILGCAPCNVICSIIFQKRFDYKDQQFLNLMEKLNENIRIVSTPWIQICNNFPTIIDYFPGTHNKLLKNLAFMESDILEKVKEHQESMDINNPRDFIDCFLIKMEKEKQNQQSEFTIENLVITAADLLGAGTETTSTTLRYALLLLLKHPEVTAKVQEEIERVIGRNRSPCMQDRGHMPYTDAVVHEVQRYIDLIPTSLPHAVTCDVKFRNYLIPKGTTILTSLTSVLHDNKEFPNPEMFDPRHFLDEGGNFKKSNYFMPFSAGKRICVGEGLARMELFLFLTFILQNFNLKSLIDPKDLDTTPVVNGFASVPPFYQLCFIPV
# From the text: Final solvent concentrations were 1% (v/v) or less.
# [6] = Plasma binding (equilibrium dialysis); type: in vitro ADME; settings: read-out: % Bound (converted)
# Procedure: Experiments were performed using equilibrium dialysis.
# [7] = female, beagle, dog, plasma, po, 5 mg/kg, 0.5% Methylcellulose, Fasted
# [8] = female, beagle, dog, plasma, po, 5 mg/kg, 0.5% Methylcellulose, Fed
# [9] = female, beagle, dog, plasma, po, 6.5 mg/kg, 50 mg Pill, Fasted
# [10] = female, beagle, dog, plasma, po, 6.5 mg/kg, 50 mg Pill, Fed
structure (smiles),measurement,setting,value
"CCOc1ccc(-c2ccc(Cn3c(CC(C)(C)C(=O)[O-])c(SC(C)(C)C)c4cc(OCc5ccc(C)cn5)ccc43)cc2)cn1.[Na+] [Compound 2, sodium 3-[3-(tert-butylsulfanyl)-1-[4-(6-ethoxy-pyridin-3-yl)benzyl]-5-(5-methyl-pyridin-2-yl-methoxy)-1H-indol-2-yl]-2,2-dimethylpropionate]",Cmax,"[1]; 0.5% Methylcellulose, 5 mg/kg, Fasted",12400 ng/mL
same,"reduction in oral bioavailability and dose-adjusted AUC, IR pill compared to oral suspension",[1]; fasted or fed comparator dogs,~30%
same,AUC(0-inf),[1]; [7],67800 ng·h/mL
same,Tmax,[1]; [7],2 h
same,bioavailability,[1]; [7],52%
same,AUC(0-inf),[1]; [8],24300 ng·h/mL
same,Tmax,[1]; [8],1.3 h
same,bioavailability,[1]; [8],19%
same,Cmax,"[1]; female, beagle, dog, plasma, po, 5 mg/kg, 0.5% Methylcellulose, 5 mg/kg, Fed, read-out: Cmax",3700 ng/mL
same,AUC(0-inf),[1]; [9],41000 ng·h/mL
same,Tmax,[1]; [9],2 h
same,bioavailability,[1]; [9],24%
same,AUC(0-inf),[1]; [10],14400 ng·h/mL
same,Tmax,[1]; [10],1.7 h
same,bioavailability,[1]; [10],8.4%
same,Cmax,"[1]; female, beagle, dog, plasma, po, 6.5 mg/kg, 50 mg Pill, 6.5 mg/kg, Fasted, read-out: Cmax",7600 ng/mL
same,Cmax,"[1]; female, beagle, dog, plasma, po, 6.5 mg/kg, 50 mg Pill, 6.5 mg/kg, Fed, read-out: Cmax",3200 ng/mL
same,half-life,"[1]; female, beagle, dog, plasma, IV, 4:1 PEG400:Water, 0.67 mg/kg, Fasted",13 h
same,CYP2C9 induction,CYP2C9,No apparent induction
same,IC50,[2],552 nM and 645 nM and 563 nM and 410 nM and 642 nM and 482 nM and 310 nM and 444 nM
same,IC90,[2],3440 nM and 1220 nM and 1550 nM and 810 nM and 1050 nM and 790 nM and 360 nM and 1240 nM
same,apparent inhibition,CYP2D6,No apparent inhibition
same,IC50,[3],0.49 nM and 0.87 nM and 0.22 nM and 0.17 nM
same,IC90,[3],0.77 nM and 1.03 nM and 0.46 nM and 0.41 nM
same,tE>50% (time above 50% LTB4 inhibition),"[4]; multiple dose 10 mg, Day 1",17.5 h
same,tE>90% (time above 90% LTB4 inhibition),"[4]; multiple dose 10 mg, Day 1",0.0 h
same,tE>50% (time above 50% LTB4 inhibition),"[4]; multiple dose 10 mg, Day 11",27.4 h
same,tE>90% (time above 90% LTB4 inhibition),"[4]; multiple dose 10 mg, Day 11",0.0 h
same,tE>50% (time above 50% LTB4 inhibition),"[4]; multiple dose 50 mg, Day 1",>23.3 h
same,tE>90% (time above 90% LTB4 inhibition),"[4]; multiple dose 50 mg, Day 1",0.0 h
same,tE>50% (time above 50% LTB4 inhibition),"[4]; multiple dose 50 mg, Day 11",42.4 h
same,tE>90% (time above 90% LTB4 inhibition),"[4]; multiple dose 50 mg, Day 11",10.0 h
same,tE>50% (time above 50% LTB4 inhibition),"[4]; multiple dose 150 mg, Day 1",>23.4 h
same,tE>90% (time above 90% LTB4 inhibition),"[4]; multiple dose 150 mg, Day 1",15.1 h
same,tE>50% (time above 50% LTB4 inhibition),"[4]; multiple dose 150 mg, Day 11",>72.0 h
same,tE>90% (time above 90% LTB4 inhibition),"[4]; multiple dose 150 mg, Day 11",52.4 h
same,tE>50% (time above 50% LTB4 inhibition),"[4]; multiple dose 450 mg, Day 1",>23.7 h
same,tE>90% (time above 90% LTB4 inhibition),"[4]; multiple dose 450 mg, Day 1",17.4 h
same,tE>50% (time above 50% LTB4 inhibition),"[4]; multiple dose 450 mg, Day 11",>72.0 h
same,tE>90% (time above 90% LTB4 inhibition),"[4]; multiple dose 450 mg, Day 11",50.4 h
same,LTB4 level at t = 24 hrs.,[4]; single dose 50 mg,37 ± 4.7 % of baseline
same,tE>50% (time above 50% LTB4 inhibition),"[4]; single dose 50 mg, Day 1",32.2 h
same,tE>90% (time above 90% LTB4 inhibition),"[4]; single dose 50 mg, Day 1",0.0 h
same,LTB4 level at t = 24 hrs.,[4]; single dose 150 mg,24 ± 4.4 % of baseline
same,tE>50% (time above 50% LTB4 inhibition),"[4]; single dose 150 mg, Day 1",41.9 h
same,tE>90% (time above 90% LTB4 inhibition),"[4]; single dose 150 mg, Day 1",14.2 h
same,LTB4 level at t = 24 hrs.,[4]; single dose 300 mg,23 ± 8.3 % of baseline
same,tE>90% (time above 90% LTB4 inhibition),"[4]; single dose 300 mg, Day 1",16.1 h
same,tE>50% (time above 50% LTB4 inhibition),"[4]; single dose 300 mg, Day 1, estimated",30^# h
same,LTB4 level at t = 24 hrs.,[4]; single dose 600 mg,1.6 ± 0.98 % of baseline
same,tE>50% (time above 50% LTB4 inhibition),"[4]; single dose 600 mg, Day 1",>71.7 h
same,tE>90% (time above 90% LTB4 inhibition),"[4]; single dose 600 mg, Day 1",67.2 h
same,LTB4 level at t = 24 hrs.,[4]; single dose 1000 mg,1.9 ± 0.41 % of baseline
same,tE>50% (time above 50% LTB4 inhibition),"[4]; single dose 1000 mg, Day 1",>71.7 h
same,tE>90% (time above 90% LTB4 inhibition),"[4]; single dose 1000 mg, Day 1",42.6 h
same,IC50,human FLAP,2.8 nM and 2.2 nM
same,Tmax,[5],≤ 2 h
same,apparent inhibition,CYP2C19,No apparent inhibition
same,fraction unbound at 10 μM,[6]; human plasma,0.005
same,fraction unbound at 10 μM,"[6]; mixed breeds, dog plasma",0.003
same,fraction unbound at 10 μM,"[6]; mixed breeds, rat plasma",0.002

# Reference: patent publication US8772495B2, “5-lipoxygenase-activating protein inhibitor” (Panmira Pharmaceuticals, LLC, priority 2008, dated 2014)
